Key:
HeLa cells [1] = assay: Luciferase in HeLa cells using a combination of modifications; type: cell-based, human; details: 83 ng luciferase modified RNA, 18 to 22 hours
Method: To evaluate using of 2′fluoro-modified mRNA in combination with other modification a series of mRNA were transcribed using either wild-type T7 polymerase (non-fluoro-containing compounds) or using mutant T7 polymerases (fluyoro-containing compounds) as described in Example 86. All modified mRNA were tested by in vitro transfection in HeLa cells.
The day before transfection, 20,000 HeLa cells (ATCC no. CCL-2; Manassas, Va.) were harvested by treatment with Trypsin-EDTA solution (LifeTechnologies, Grand Island, N.Y.) and seeded in a total volume of 100 ul EMEM medium (supplemented with 10% FCS and 1× Glutamax) per well in a 96-well cell culture plate (Corning, Manassas, Va.). The cells were grown at […] in 5% CO2 atmosphere overnight. […] Lipofectamine 2000 (LifeTechnologies, Grand Island, N.Y.) was used as transfection reagent and 0.2 ul were diluted in 10 ul final volume of OPTI-MEM. After 5 minutes of incubation at room temperature, both solutions were combined and incubated an additional 15 minute at room temperature. Then the 20 ul combined solution was added to the 100 ul cell culture medium containing the HeLa cells and incubated at room temperature.
After 18 to 22 hours of incubation cells expressing luciferase were lysed with 100 ul of Passive Lysis Buffer (Promega, Madison, Wis.) according to manufacturer instructions. Aliquots of the lysates were transferred to white opaque polystyrene 96-well plates (Corning, Manassas, Va.) and combined with 100 ul complete luciferase assay solution (Promega, Madison, Wis.). The lysate volumes were adjusted or diluted until no more than 2 mio relative light units (RLU) per well were detected for the strongest signal producing samples and the RLUs for each chemistry tested are shown in Table 26. The plate reader was a BioTek Synergy H1 (BioTek, Winooski, Vt.). The background signal of the plates without reagent was about 200 relative light units per well.

Balb-C mice [2] = assay: In vivo screening of combination luciferase modified mRNA, whole-body bioluminescence; details: subcutaneous, 100 ug mRNA in 1×PBS, imaged 8 hours after dosing
Method: (§1) A control of PBS was also tested. The dosages of the modified luciferase mRNA is also outlined in Table 22. 8 hours after dosing the mice were imaged to determine luciferase expression. Twenty minutes prior to imaging, mice were injected intraperitoneally with a D-luciferin solution at 150 mg/kg. Animals were then anesthetized and images were acquired with an IVIS Lumina II imaging system (Perkin Elmer). Bioluminescence was measured as total flux (photons/second) of the entire mouse.

HeLa cells [3] = assay: G-CSF modified mRNA transfected in HeLa cells, G-CSF ELISA; type: cell-based, human; details: HeLa cells, ELISA
Summary of the method: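 Human G-CSF mRNAs bearing various chemical modifications, made with a mutant T7 polymerase, were either transfected into HeLa cells or added to rabbit reticulocyte lysate at 250 ng mRNA. G-CSF protein was quantified by ELISA.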

Balb-C mice [4] = assay: In vivo screening of luciferase modified mRNA, whole-body bioluminescence; details: subcutaneous; for Luciferase expression (photon/second): 42 to 103 ug mRNA in 1×PBS, imaged 8 hours after dosing, total flux of entire mouse
Method: as §1

HeLa cells [5] = assay: 2′Fluoro luciferase mRNA transfection in HeLa cells; type: cell-based, human; details: 83 ng 2′fluoro-containing luciferase RNA, 18 to 22 hours
Method: The 2′Fluoro-modified mRNA were then transfected into HeLa cells to assess protein production in a cell context and the same mRNA were also assessed in a cell-free rabbit reticulocyte system. A control of unmodified luciferase (natural luciferase) was used for both transcription experiments, a control of untreated and mock transfected (Lipofectamine 2000 alone) were also analyzed for the HeLa transfection and a control of no RNA was analyzed for the rabbit reticulysates.
For the HeLa transfection experiments, the day before transfection, 20,000 HeLa cells (ATCC no. CCL-2; Manassas, Va.) were harvested by treatment with Trypsin-EDTA solution (LifeTechnologies, Grand Island, N.Y.) and seeded in a total volume of 100 ul EMEM medium (supplemented with 10% FCS and 1× Glutamax) per well in a 96-well cell culture plate (Corning, Manassas, Va.). The cells were grown at […] in 5% CO2 atmosphere overnight. […] Lipofectamine 2000 (LifeTechnologies, Grand Island, N.Y.) was used as transfection reagent and 0.2 ul were diluted in 10 ul final volume of OPTI-MEM. […] The lysate volumes were adjusted or diluted until no more than 2 mio relative light units (RLU) per well were detected for the strongest signal producing samples and the RLUs for each chemistry tested are shown in Table 24. The plate reader was a BioTek Synergy H1 (BioTek, Winooski, Vt.). […]

[6] = system: Rabbit Reticulocyte Lysate; assay: 2′Fluoro luciferase mRNA in rabbit reticulocyte lysate assay; type: biochemical; details: Rabbit reticulysates, 250 ng luciferase mRNA, 60 minutes
Method: For the rabbit reticulocyte lysate assay, 2′-fluoro-containing luciferase mRNA were diluted in sterile nuclease-free water to a final amount of 250 ng in 10 ul and added to 40 ul of freshly prepared Rabbit Reticulocyte Lysate and the in vitro translation reaction was done in a standard 1.5 mL polypropylene reaction tube (Thermo Fisher Scientific, Waltham, Mass.) at 30° C. in a dry heating block. The translation assay was done with the Rabbit Reticulocyte Lysate (nuclease-treated) kit (Promega, Madison, Wis.) according to the manufacturer's instructions. The reaction buffer was supplemented with a one-to-one blend of provided amino acid stock solutions devoid of either Leucine or Methionine resulting in a reaction mix containing sufficient amounts of both amino acids to allow effective in vitro translation. […]
Aliquots of the in vitro translation reaction containing luciferase modified RNA were transferred to white opaque polystyrene 96-well plates (Corning, Manassas, Va.) and combined with 100 ul complete luciferase assay solution (Promega, Madison, Wis.). The volumes of the in vitro translation reactions were adjusted or diluted until no more than 2 mio relative light units (RLUs) per well were detected for the strongest signal producing samples and the RLUs for each chemistry tested are shown in Tables 24 and 25. The plate reader was a BioTek Synergy H1 (BioTek, Winooski, Vt.). […]

[7] = system: peripheral blood mononuclear cells (PBMC); assay: In vitro screening in PBMC: G-CSF protein expression by ELISA; type: cell-based, human
Summary of the method: (§2)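 Culture supernatant was collected and kept frozen until analysis. ELISA on these samples measured secreted protein and cytokine induction.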

interferon-alpha (IFN-α) = assay: In vitro screening in PBMC: interferon-alpha induction by ELISA; type: cell-based, human
Summary of the method: as §2

rabbit reticulysates = assay: G-CSF modified mRNA in rabbit reticulysates, G-CSF ELISA; type: biochemical; details: 250 ng of modified mRNA
Method: To assess the activity of all our different chemical modifications in the context of a second open reading frame, we replicated experiments previously conducted using luciferase mRNA, with human G-CSF mRNA. […] The mutant T7 polymerase was obtained commercially (Durascribe® T7 Transcription kit (Cat. No. DS010925) (Epicentre®, Madison, Wis.).
The modified RNA in Tables 27 and 28 were transfected in vitro in HeLa cells or added to rabbit reticulysates (250 ng of modified mRNA) as indicated. […] In Table 27, “NT” means not tested.

[8] = system: tumor necrosis factor alpha (TNF-α); assay: In vitro screening in PBMC: tumor necrosis factor alpha induction by ELISA; type: cell-based, human
Summary of the method: as §2

HeLa cells [9] = assay: In vitro screening in HeLa cells, luciferase modified RNA; type: cell-based, human; details: HeLa cells, 83 ng luciferase modified RNA, 18 to 22 hours
[10] = system: human embryonic kidney 293 (HEK293) cells; assay: Cytotoxicity of NTPs, CYTO TOX-GLO assay; type: cell-based
Method: The cytotoxicity of natural and modified nucleoside triphosphates (NTPs) alone or in combination with other bases, was analyzed in human embryonic kidney 293 (HEK293) cells in the absence of transfection reagent. […] 10 ul of the NTPs outlined in Table 12 were combined with 10 ul of lipid dilution and incubated for 30 minutes to form a complex before 80 ul of the HEK293 cell suspension was added to the NTP complex.
Natural and modified NTPs were transfected at a concentration of 2.1 nM, 21 nM, 210 nM, 2.1 um, 21 uM, 210 um or 2.1 mM. NTPs in combination were transfected at a total concentration of NTPs of 8.4 nM, 84 nM, 840 nM, 8.4 uM, 84 uM, 840 uM and 8.4 mM. […] The cytotoxicity of the NTPs and the modified G-CSF mRNA was assayed at 4, 24, 48 and 72 hours post addition to the HEK293 cells using a CYTO TOX-GLO™ assay from Promega (Madison, Wis.) following the manufacturer protocol except pippeting was used for lysing the cells instead of shaking the plates.

[11] = system: Rabbit Reticulocyte Lysate; assay: In vitro screening in rabbit reticulocyte lysates, luciferase mRNA translation; type: biochemical; details: 250 ng luciferase mRNA, 60 minutes, 30° C.
Method: The diluted luciferase was added to 40 ul of freshly prepared Rabbit Reticulocyte Lysate and the in vitro translation reaction was done in a standard 1.5 mL polypropylene reaction tube (Thermo Fisher Scientific, Waltham, Mass.) at 30° C. in a dry heating block. The translation assay was done with the Rabbit Reticulocyte Lysate (nuclease-treated) kit (Promega, Madison, Wis.) according to the manufacturer's instructions. The reaction buffer was supplemented with a one-to-one blend of provided amino acid stock solutions devoid of either Leucine or Methionine resulting in a reaction mix containing sufficient amounts of both amino acids to allow effective in vitro translation.
After 60 minutes of incubation, the reaction was stopped by placing the reaction tubes on ice. Aliquots of the in vitro translation reaction containing luciferase modified RNA were transferred to white opaque polystyrene 96-well plates (Corning, Manassas, Va.) and combined with 100 ul complete luciferase assay solution (Promega, Madison, Wis.). The volumes of the in vitro translation reactions were adjusted or diluted until no more than 2 mio relative light units (RLUs) per well were detected for the strongest signal producing samples and the RLUs for each chemistry tested are shown in Table 20. The plate reader was a BioTek Synergy H1 (BioTek, Winooski, Vt.). The background signal of the plates without reagent was about 200 relative light units per well.

[12] = PBMC Donor 1, 500 ng G-CSF mRNA
[13] = PBMC Donor 2, 500 ng G-CSF mRNA
[14] = PBMC Donor 3, 500 ng G-CSF mRNA

In the case of “5-methylcytidine/where 50% of the uridine is replaced with 2-thiouridine: Luciferase mRNA (SEQ ID NO: 409) with 5-methylcytidine and 50% of the uridine replaced with 2-thiouridine”, the RLU (HeLa cells [1]) is reported as 41,601 RLU and the “Luciferase expression (photon/second)” value (Balb-C mice [2]) is reported as 2.39E+06 photon/second.
In the case of “2′-flurorouridine: Luciferase mRNA (SEQ ID NO: 409) fully modified with 2′-fluorouridine”, the “G-CSF protein (pg/ml) HeLa cells” value (HeLa cells [3]; combination chemistries) is reported as 0 pg/mL, the “Luciferase expression (photon/second)” value (Balb-C mice [4]) is reported as 3.47E+05 photon/second and the in vivo activity (Balb-C mice [4]; luciferase mRNA, result in words) is reported as “exception”. It also gave an RLU (HeLa cells [5]) of 6767.5 RLU, an RLU (HeLa cells [1]) of 305 RLU and an RLU [6] of 258 RLU.
With `O=c1[nH]cc([C@@H]2O[C@H](CO)[C@@H](O)[C@H]2O)c(=O)[nH]1` [Pseudouridine] the “G-CSF Protein Expression” value [7, 12] was 2477 pg/mL, the “G-CSF Protein Expression” value [7, 13] was 1,909 pg/ml and the “G-CSF Protein Expression” value [7, 14] was 1,498 pg/ml. The “IFN-α Expression” value (interferon-alpha (IFN-α); [12]) was 120 pg/mL, the “IFN-α Expression” value (interferon-alpha (IFN-α); [13]) was 77 pg/mL and the “IFN-α Expression” value (interferon-alpha (IFN-α); [14]) was 171 pg/mL. For the same molecule, the cytokine induction (interferon-alpha (IFN-α); PBMC, G-CSF mRNA, result in words) was “detectable cytokine induction which is above background”, the “G-CSF protein (pg/ml) Rabbit reticulysates cells” value (rabbit reticulysates) was 147,875 pg/ml and the “G-CSF protein (pg/ml) HeLa cells” value (HeLa cells [3]; G-CSF mRNA) was 1,150,909 pg/ml. For the same molecule, the “Luciferase expression (photon/second)” value (Balb-C mice [4]) was 1.36E+07 photon/second, the “TNF-α Expression” value [8, 12] was 36 pg/mL and the “TNF-α Expression” value [8, 13] was 81 pg/mL. For the same molecule, the “TNF-α Expression” value [8, 14] was 126 pg/mL, the RLU (HeLa cells [9]) was 655,632 RLU and the “toxicity as compared to the untreated cells” value [10] was “not toxic”. The RLU [11] was 587,795 RLU.
